Source: EP4741374A1, “TREPROSTINIL DERIVATIVE, AND PREPARATION METHOD THEREFOR AND USE THEREOF” (CF PharmTech HongKong Limited, priority 2023, dated 2025)

Experiments:
IP receptor = biological target: T1, IP receptor (Homo sapiens, UniProt P43119); assay: In-vitro agonist activity on IP receptor, FLIPR calcium test in IP/HEK293 cells; assay type: cell-based; conditions: 10 concentrations, 10-fold dilutions
T1 construct: host or cells: HEK293 (IP/HEK293 cell line)
Protocol: The specific method is as follows: The IP/HEK293 cell line was provided by WuXi AppTec (Shanghai) Co., Ltd. Well-grown IP/HEK293 cells were taken out from the incubator, the culture solution was aspirated, the cells were washed with D-PBS and digested with trypsin EDTA, and then added with a cell culture solution, and the cells were fully suspended by repeated pipetting. The cells were centrifuged at room temperature, the supernatant was aspirated, a culture medium was added, and the cells were resuspended by repeated pipetting with a sterile pipette. After counting living cells with Vi-CELL™, 20 µL (20,000 cells/well) of cell suspension was added to a 384-well cell culture plate and incubated in a 5% CO2 incubator at 37°C overnight. 1 mL of FLIPR test buffer was added with 77 mg of probenecid to prepare 250 mM probenecid solution. After thawing a bottle of 2XFluo-4 DirectTM (F10471), the bottle was added with 10 mL of FLIPR test buffer containing 500 uM AEBSF, and each 10 mL of Fluo-Direct was added with 0.2 mL of probenecid, with a final concentration of 2.5 mM. The mixture was vortexed and then allowed to stand in the dark for more than 5 minutes. Each compound was placed in a water bath at 25°C for 30 minutes. Then, these compounds were sequentially diluted 10-fold with Bravo, with a total of 10 concentrations, for testing. 750 nL of each compound was transferred to a 384-well compound plate with ECHO. Then, the compound plate was added with 30 µL of detection buffer. The 384-well cell culture plate was taken out from the incubator, the culture medium was discarded, and 20 µL of test buffer and 20 µL of 2X Fluo-4 DirectTM No-Wash loading buffer were added with a pipette. The cell culture plate was incubated in a 5% CO2 incubator at 37°C for 50 minutes and incubated at room temperature for 10 minutes. The cell culture plate, the compound plate and a tip box were placed into FLIPR, FLIPRTETRA test program was operated, 10 µL of reference compound and 10 µL of test compound were aspirated from the compound plate to the cell culture plate, fluorescence signals were read, and then data were processed. The data were analyzed by using Prism.

EP2 receptor = biological target: T2, EP2 receptor (Homo sapiens, UniProt P43116); assay: Competitive binding to EP2 receptor against radiolabeled ligand 3H-PGE2; conditions: 8 concentrations from 10 µM, 10-fold dilutions
T2 construct: purchased Merck HTS185M
T2 sequence (P43116 whole entry): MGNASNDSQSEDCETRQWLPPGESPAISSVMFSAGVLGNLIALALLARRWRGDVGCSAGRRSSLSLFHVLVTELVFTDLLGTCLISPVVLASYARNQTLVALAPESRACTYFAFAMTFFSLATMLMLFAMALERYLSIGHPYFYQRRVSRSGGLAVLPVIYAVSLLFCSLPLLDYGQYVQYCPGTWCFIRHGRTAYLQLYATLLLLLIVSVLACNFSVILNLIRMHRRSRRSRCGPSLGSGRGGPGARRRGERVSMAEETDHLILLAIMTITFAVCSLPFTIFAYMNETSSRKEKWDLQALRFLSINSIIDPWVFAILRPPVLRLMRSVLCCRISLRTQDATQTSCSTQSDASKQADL
Protocol: This experiment was carried out in 96-well plates to evaluate the binding affinity of the compounds of the present invention (Ia-1, Ia-2 and Ia-3) to the prostaglandin EP2 receptor by testing their ability of competitive binding to the EP2 receptor with the radiolabeled ligand ^3H-PGE2. Treprostinil was used as control. MicroBeta2 was used to detect the number of ^3H captured, and Prism software was used to analyze data. The EP2 film (Merck, Cat# HT[…], batch number 2121326) was diluted with a buffer (50 mM Hepes, PH=7.4, 5 mM MgCl2, 1 mM CaCl2, 0.5% BSA) to a final concentration of 75 μg/mL. ^3H-PGE2 was diluted to 15 nM. Test compound and control compound solutions with an initial concentration of 10 μM were prepared, and subjected to 10-fold continuous gradient dilution, with a total of 8 concentrations for testing. 5%DMSO was used as a solvent control group. 1 μL of each compound solution was added into a corresponding position in the 96-well test plate, and each well was added with 50 μL of the EP2 film (about 3.75 μg/well), and added with 50 μ L of ^3H-PGE2. Then, the well plate was sealed, and incubated with shaking at 300 rpm at room temperature for 2 hours. After finishing the incubation, GF/C plates were filtered with Perkin Elmer Filtermate Harvester, and then each plate was washed with cold eluent for 4 times, and dried at 50°C for 1 hour. After drying, bottoms of wells of the filter plate were sealed with a PerkinElmer Unifilter-96 backing tape. 50 μL of Perkin Elmer Microscint O was added. The top of the filter plate was sealed with Perkin Elmer TopSeal-A sealing film. The number of ^3H captured was detected by MicroBeta2.

T1 sequence (P43119 whole entry): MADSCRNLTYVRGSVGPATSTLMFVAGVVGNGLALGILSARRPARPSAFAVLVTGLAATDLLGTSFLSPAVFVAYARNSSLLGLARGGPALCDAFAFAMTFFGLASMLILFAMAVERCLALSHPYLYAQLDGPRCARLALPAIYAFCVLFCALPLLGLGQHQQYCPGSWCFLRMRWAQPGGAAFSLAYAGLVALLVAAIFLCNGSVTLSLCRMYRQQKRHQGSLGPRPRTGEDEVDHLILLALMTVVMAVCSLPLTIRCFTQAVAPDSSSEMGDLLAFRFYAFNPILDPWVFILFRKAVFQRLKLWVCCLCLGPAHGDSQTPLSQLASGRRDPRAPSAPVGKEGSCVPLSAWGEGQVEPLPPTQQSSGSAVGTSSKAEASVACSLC

agonist activity on IP receptor (IP receptor): no agonist activity | binding to the EP2 receptor (competition with 3H-PGE2) (EP2 receptor): no detectable binding
SMILES: CCCCC[C@H](O)CC[C@@H]1[C@H]2Cc3cccc(OCC(=O)OCCCCCCCCOCCCCc4ccccc4)c3C[C@H]2C[C@H]1O [Compound Ia-2]
